Laboratory results: PMC12263630 (Frontiers in Pharmacology, 2025)
Read-outs that look alike come from different tables or passages of the source.

Columns and labels:
[1] = target: T1, human α2A adrenergic receptor (Homo sapiens, UniProt P08913); experiment: [35S]GTPγS binding assay, α2A; assay type: biochemical; settings: α2AR; relative to maximal response of UK-14304
T1 construct: expressed in transfected cells; host or cells: Chem-1 (rat hematopoietic cell line), membranes
T1 sequence (P08913 1-465): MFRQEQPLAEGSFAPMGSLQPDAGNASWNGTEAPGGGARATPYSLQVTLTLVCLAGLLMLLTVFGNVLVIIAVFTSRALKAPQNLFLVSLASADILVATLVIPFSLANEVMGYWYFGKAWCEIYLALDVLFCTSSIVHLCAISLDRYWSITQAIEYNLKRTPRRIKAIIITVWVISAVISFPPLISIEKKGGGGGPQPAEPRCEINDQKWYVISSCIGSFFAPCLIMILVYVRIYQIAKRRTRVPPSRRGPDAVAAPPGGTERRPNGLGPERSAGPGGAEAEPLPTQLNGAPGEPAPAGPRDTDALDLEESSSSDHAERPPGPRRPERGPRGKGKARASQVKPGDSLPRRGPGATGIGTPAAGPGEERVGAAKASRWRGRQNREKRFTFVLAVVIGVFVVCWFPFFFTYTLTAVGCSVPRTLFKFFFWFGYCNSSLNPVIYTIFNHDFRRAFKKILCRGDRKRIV
Protocol: (§1) Cells were transfected with constructs encoding either human α2A (Chem-1, rat hematopoietic cell line), or α2B or α2C (Cho-K1, Chinese hamster ovary cell line) adrenergic receptors. Each test compound was prepared in DMSO at 10 mM and diluted to indicated concentrations in the incubation buffer (20 mM HEPES, 100 mM NaCl, 10 mM MgCl2, 1 mM DTT, 1 mM EDTA, pH 7.4.
(§2) Binding data were generated as duplicates. […] Three parameter logistic equations were fitted to the data to obtain EC50 and Emax values.

[2] = target: T2, human α2C adrenergic receptor (Homo sapiens, UniProt P18825); experiment: [35S]GTPγS binding assay, α2C; assay type: biochemical; settings: for Max activity / EC50: α2CR; for Max activity: relative to maximal response of UK-14304; for EC50: [35S]GTPγS binding
T2 sequence (P18825 1-462): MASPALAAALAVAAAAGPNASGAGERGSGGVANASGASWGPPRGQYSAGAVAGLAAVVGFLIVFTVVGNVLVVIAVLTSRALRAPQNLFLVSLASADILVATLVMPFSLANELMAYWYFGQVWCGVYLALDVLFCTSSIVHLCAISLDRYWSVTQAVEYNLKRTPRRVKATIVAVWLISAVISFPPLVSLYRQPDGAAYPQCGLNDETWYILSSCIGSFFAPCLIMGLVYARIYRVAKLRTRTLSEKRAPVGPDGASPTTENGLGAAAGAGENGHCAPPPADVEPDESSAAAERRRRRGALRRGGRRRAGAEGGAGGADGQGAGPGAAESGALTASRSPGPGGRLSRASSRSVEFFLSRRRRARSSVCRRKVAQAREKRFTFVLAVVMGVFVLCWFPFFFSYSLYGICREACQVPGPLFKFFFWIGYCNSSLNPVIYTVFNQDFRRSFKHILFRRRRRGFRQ
Protocol: as §1, §2

human α2A adrenoceptor = target: T3, human α2A adrenoceptor (Homo sapiens, UniProt P08913); experiment: β-arrestin recruitment chemiluminescent assay (PathHunter), α2A; assay type: cell-based; settings: α2AR, relative to UK-14304
T3 construct: expressed in transfected cells
T3 sequence (P08913 1-465): T1 sequence (P08913 1-465)
Protocol: (§3) PathHunter cell lines were expanded from freezer stocks according to standard procedures. Cells were seeded in a total volume of 20 μL into white walled, 384-well microplates and incubated at 37°C for the appropriate time prior to testing. Intermediate dilution of sample stocks was performed to generate 5X sample in assay buffer. […] Vehicle concentration was 1%. […] Microplates were read following signal generation with a PerkinElmer Envision™ instrument for chemiluminescent signal detection.

human α2C adrenoceptor = target: T4, human α2C adrenoceptor (Homo sapiens, UniProt P18825); experiment: β-arrestin recruitment chemiluminescent assay (PathHunter), α2C; assay type: cell-based; settings: α2CR; for Max activity: relative to UK-14304
T4 construct: expressed in transfected cells
T4 sequence (P18825 1-462): T2 sequence (P18825 1-462)
Protocol: as §3

in vivo = settings: male, Sprague Dawley, rat
Protocol: Male Sprague Dawley (SD) rats, 200–250 g, purchased from Charles River Laboratories (South San Francisco, CA) were used for microdialyses studies. Upon arrival, rats were group-housed in polycarbonate cages (2-3 rats per cage) and acclimated for at least 7 days prior to commencing the studies. […] Rats were tracked via unique identifying numbers.
Ten male SD rats with a jugular vein (JV) cannula were used in this study. Rats were anesthetized using isoflurane (2%, 800 mL/min O2). Bupivacaine was used for local anesthesia and carprofen for peri-/post-operative analgesia. Animals were placed in a stereotaxic frame (Kopf instruments, United States) and MetaQuant microdialysis probes (PAN membrane, BrainLink, Netherlands) were implanted into the prefrontal cortex (PFC), 4 mm exposed surface. Coordinates for the tips of the probes for the PFC are: antero-posterior (AP) = +3.4 mm from bregma, lateral (L) = −0.8 mm from midline and ventral (V) = −5.0 mm from dura, the toothbar set at −3.3 mm. […] The microdialysis probes were connected with flexible PEEK tubing to a microperfusion pump (Harvard PHD 2000 Syringe pump, Holliston, MA). […] Microdialysis samples were collected for 30 min periods by an automated fraction collector (820 Microsampler, Univentor, Malta) into 300 µL polypropylene mini-vials. […]

[3] = assumed for free plasma calculation; ref Bol et al., 1997; cited from earlier work
[4] = target: T5, human α2B adrenergic receptor (Homo sapiens, UniProt P18089); experiment: biochemical
T5 sequence (P18089 1-450): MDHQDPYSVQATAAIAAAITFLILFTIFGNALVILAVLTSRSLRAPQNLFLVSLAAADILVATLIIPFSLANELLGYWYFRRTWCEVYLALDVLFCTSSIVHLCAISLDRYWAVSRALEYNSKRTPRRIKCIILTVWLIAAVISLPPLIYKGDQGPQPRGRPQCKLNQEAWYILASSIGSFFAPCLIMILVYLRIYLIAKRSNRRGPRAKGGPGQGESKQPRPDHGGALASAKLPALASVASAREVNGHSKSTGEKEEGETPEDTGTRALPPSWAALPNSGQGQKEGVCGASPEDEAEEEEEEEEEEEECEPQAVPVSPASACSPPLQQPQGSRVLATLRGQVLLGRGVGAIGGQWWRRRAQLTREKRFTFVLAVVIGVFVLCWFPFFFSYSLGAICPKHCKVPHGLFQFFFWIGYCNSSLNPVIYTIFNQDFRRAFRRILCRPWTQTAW
Protocol: as §1, §2

[5] = system: stress-induced immobility; experiment: Forced swim test; assay type: in vivo, SD rats; settings: versus vehicle; for immobility time: 60 min prior
Protocol: A total of 78 male SD rats (9–10 weeks old) were procured from Hylasco Biotechnology Pvt. Ltd., Hyderabad, India and were divided into seven groups (9–12 animals per group). Animals were housed in an environmentally controlled room at 22°C ± 3°C and relative humidity of 30–70 percent. Adequate fresh air supply of 12–15 air changes/hour was maintained. The temperature was maintained at 20°C–23°C. […] The lights of the acclimatization area were switched off at 06:00 p.m. Two rats per cage were housed in sterilized suspended standard, polysulfone cages, (Size: approximately L425 x B266 x H185 mm), with stainless steel top grills having facilities for holding pelleted food and drinking water in polycarbonate bottles with stainless steel sipper tubes. During the study period animals were housed in a single room. Animals received food and water ad libitum.
The test was carried out in transparent cylindrical glass containers measuring 46 cm in height and 20 cm in diameter. The containers were filled with water (23°C–25 °C) to a depth of 30 cm. Clean drying cages, heat lamps and heat pads were used for the animals that have finished the procedure to avoid hypothermia. The test was carried out in Dark Phase. […] A red bulb of 50 W was used for observation during Swim 1 and Swim 2 procedure. Swim 1 was carried out between 18:30 to 21:30 and Swim 2 was carried out between 19:30 to 21:30.
On test day, animals were dosed intramuscularly with respective treatment 60 min prior to performing FST. […] In swim 2, the first 1-min data was excluded from analysis and the remaining 5 min data was considered.
Rats were placed in the water-filled cylinder for 6 min during Swim 2. […] A rat was judged to be immobile when it remained floating in the water without struggling and was making only those movements necessary to keep its head above water. […] Water was changed after every session to avoid any influence on the next rat. […] The rats were placed in a swim chamber and behaviors were measured for 5 min on test day. Data was presented as total immobility time (in seconds) over the 5-min trial.

memory consolidation = experiment: Cued fear conditioning test; settings: 10 and 20 μg/kg, 30 min before conditioning
From the text: Rats were housed 1 animal per cage in sterilized solid bottom polycarbonate cages (Dimensions 42.5 cm [L] X 26.5 cm [W] X 18.5 cm [H]) with stainless steel grill tops, facilitate for food and water bottle, and bedding of corncob husk.
Rodent fear conditioning chambers (L x W x H, rat: 26 × 30 × 33 cm, Coulbourn instruments. United States) placed in sound attenuating cabinets were used. Stainless steel grid floors (L x W, rat: 26 × 30 cm), connected to shock scramblers were used to deliver the shock. A ventilation fan provided a background noise of 60 dB. A light bulb (centered on the right wall, and 27 cm above the floor of the chamber) provided ambient illumination. Experiments were recorded using video camera, mounted on the cabinet ceiling and images were analyzed with freeze frame 3 software (V3.2.1). The fear conditioning chambers have transparent acrylic panels. All experimentations were carried out in a single fear conditioning chamber.
On day 0, animals were randomized into eight groups based on their body weight.
Session-I: On day 1 (N = 5), rats were brought to the laboratory at least 1 h prior to experimentation. […]
On day 2, rats were brought to the laboratory at least 1 h prior to experimentation. […] The freezing behavior of the animals was recorded for 6 min (starting from the time the animal placed in the fear conditioning chamber). […]

[6] = system: stress-induced immobility after repeated stress; experiment: Open space swim test; settings: for time spent in the periphery, change vs vehicle controls / mean duration of immobility, change vs vehicle controls / mean distance travelled, change vs vehicle controls: Day 8, 40 μg/kg i.p. acute; for time spent in the periphery, change vs vehicle controls: p < 0.001
sleep onset latency = system: sleep onset latency
From the text: Chow and water were provided ad libitum for the duration of the study.

human α2B adrenoceptor = human α2B adrenoceptor (Homo sapiens, UniProt P18089); experiment: cell-based
Protocol: as §3

motor coordination = experiment: Rotarod test; settings: 4 mg/kg i.p., 30 min before test; p < 0.01
Protocol: 75 male Swiss mice (6 weeks old, 29–41 g body weight range at the beginning of the experiment) were supplied by Janvier Labs (Le Genest St Isle, France). […] Environmental enrichment such as gnawing and nesting material was provided.
On Day 0, mice were submitted to two training trials separated by a 5-min interval. For each trial, mice were placed on a rod (diameter: 7 cm) rotating at a speed of 18 revolutions per minute for a 3-min period. On Day 1, a final training was performed in the morning (at least 2 h before the drug testing). On Day 1, the test session was performed at least 2 h after the habituation period (in the afternoon) and mice were placed on the rod for a maximum period of 3 min. The latency to fall off the rod was recorded. Data was analyzed by using one-way ANOVA followed by Dunnett’s comparisons test.75 male Swiss mice (6 weeks old, 29–41 g) were allocated into five groups (10–15 animals per group).

CCK-4 induced anxiety = experiment: CCK-4 elevated plus maze test
From the text: 48 male Wistar rats were supplied by Janvier (Le Genest St Isle, France) for this study. They were purchased at a body weight of 150 g and reached a body weight of about 270 g at the time of use.
In the present study, 12 animals per group were used. The apparatus is a PVC maze covered with Plexiglas and subdivided into four equal exploratory arms (40 × 10 cm), which are all interconnected by a small platform (10 × 10 cm). The apparatus is placed 65 cm above the floor. Two arms are open, and two others are closed with transparent wall (high: 10 cm).
After compound administration, a rat is placed on the platform opposite a closed arm. The number of entries and the time spent on each arm are recorded during a 5 min period. The animal is considered as entered in an arm when it places its four paws in the arm. The apparatus was cleaned between each animal using alcohol (70%). Urine and feces were removed from the maze. Data were analyzed by One way ANOVA followed by Dunnett’s comparisons test. CCK-4 (0.2 mg/kg) was administered intraperitoneally in the Wistar rats 30 min prior to the test. […] 60 min prior to the study (30 min prior to CCK-4 administration). Diazepam (1 mg/kg) was administered 30 min prior to study (at the time of CCK-4 administration). After the administration of compounds, rats were placed on the platform opposite a closed arm in the elevated plus maze. The number of entries and the time spent in each arm were recorded during a 5 min period. The animal was considered as entered in an arm when it placed its four paws in the arm.

[7] = daily i.p. Day 8 to Day 32, 40 μg/kg, p < 0.0001

Compound: Clc1cccc(Cl)c1N=C1NCCN1 [Clonidine]
- Max activity [1]: 76%
- intrinsic activity at the α2C-AR ([2]; in words, repeated in two assay systems): very low intrinsic activity
- Max activity [2]: 32%
- Max activity (human α2A adrenoceptor): 93%
- Max activity (human α2C adrenoceptor): 8%

Compound: Cc1cccc([C@H](C)c2cnc[nH]2)c1C [Dexmedetomidine]
- Tmax (in vivo): 30 to 60 min
- bound to plasma proteins [3]: 84%
- EC50 [4]: 0.0028 µM
- Max activity [4]: 147%
- immobility time ([5]; 1 μg/kg intramuscular, p = 0.0238): significantly decreased
- immobility time ([5]; 5 μg/kg intramuscular, p < 0.0001): significantly decreased
- Max activity [1]: 89%
- memory formation (duration of freezing) (memory consolidation): did not impair memory formation
- EC50 [2]: 0.014 µM
- Max activity [2]: 110%
- time spent in the periphery, change vs vehicle controls ([6]; first treated group): +159%
- mean duration of immobility, change vs vehicle controls ([6]; first treated group, p < 0.01): −43%
- mean distance travelled, change vs vehicle controls ([6]; first treated group, p < 0.05): +31%
- time spent in the periphery, change vs vehicle controls ([6]; second treated group): +138%
- mean distance travelled, change vs vehicle controls ([6]; second treated group, p < 0.01): +36%
- mean duration of immobility, change vs vehicle controls ([6]; second treated group, p < 0.01): −36%
- mean distance travelled over the testing period [6, 7]: increased
- mean duration of immobility over the testing period [6, 7]: decreased
- time spent in the periphery over the testing period [6, 7]: increased
- onset of SWS (sleep onset latency; 5 μg/kg intramuscular): significantly reduced
- onset of SWS (sleep onset latency; 20 μg/kg intramuscular): significantly reduced
- EC50 (human α2B adrenoceptor): 0.0006 µM
- Max activity (human α2B adrenoceptor): 106%
- Max activity (human α2A adrenoceptor): 101%
- EC50 (human α2C adrenoceptor): 0.024 µM
- Max activity (human α2C adrenoceptor): 95%

Compound: CN1C(=O)CN=C(c2ccccc2)c2cc(Cl)ccc21 [Diazepam]
- latency to fall-off, change vs vehicle controls (motor coordination): −60%
- effects in elevated plus maze, positive control (CCK-4 induced anxiety; 1 mg/kg, 30 min prior, with CCK-4): exceeded those measured in vehicle animals

Compound: N=C(N)NC(=O)Cc1c(Cl)cccc1Cl [Guanfacine]
- Max activity [1]: 78%
- Max activity [2]: 72%
- Max activity (human α2A adrenoceptor): 100%
- Max activity (human α2C adrenoceptor): 68%

Compound: CC(Oc1c(Cl)cccc1Cl)C1=NCCN1 (centres unmarked) [Lofexidine]
- EC50 [4]: 0.043 µM
- Max activity ([4]; α2BR, relative to maximal response of UK-14304): 97%
- EC50 [2]: 0.023 µM
- Max activity [2]: 50%

Compound: CN(C)CCCN1c2ccccc2CCc2ccccc21 [imipramine]
- immobility time, positive control ([5]; 30 mg/kg): p = 0.0002 versus vehicle

Compound: Cholecystokinin tetrapeptide [CCK-4]
- number of entries in the open arms (CCK-4 induced anxiety; CCK-4 0.2 mg/kg i.p. alone, vehicle 4.3): 1.3
- time spent in the open arms (CCK-4 induced anxiety; CCK-4 0.2 mg/kg i.p. alone, vehicle 45 s): 6 s
